Earlier results as cited in publication PMC3759941 (International Journal of Molecular Sciences, 2013).
Where two headings read alike, the source gives them in different places.

Test system: EeAChE

| SMILES | IC50 (Table 1, mono-pyridinium reactivators) [mM] | IC50 (Table 2, bis-pyridinium reactivators) [mM] | IC50 (Table 3) [mM] |
| --- | --- | --- | --- |
| C[n+]1ccccc1/C=N/O [Compound 1, 2-pyridine aldoxime methiodide] | 54.9 |  |  |
| ON=Cc1cc[n+](CCC[n+]2ccc(/C=N/O)cc2)cc1 [Compound 6, trimedoxime] |  | 51.9 | 51.9 |
| ON=Cc1cc[n+](C/C=C/C[n+]2ccc(C=NO)cc2)cc1 [Compound 23] |  |  | 36.7 |
